29 compounds from US9078899B2, “Pyrazolyl-based carboxamides II” (Grünenthal GmbH, priority 2013, dated 2015) can be followed below.

Where only a bound is given, the exact number is not on record here.

The target of one assay is T1, CRAC channel (Homo sapiens, UniProt Q96D31).
T1 construct: host or cells: HEK293
T1 sequence (Q96D31 whole entry): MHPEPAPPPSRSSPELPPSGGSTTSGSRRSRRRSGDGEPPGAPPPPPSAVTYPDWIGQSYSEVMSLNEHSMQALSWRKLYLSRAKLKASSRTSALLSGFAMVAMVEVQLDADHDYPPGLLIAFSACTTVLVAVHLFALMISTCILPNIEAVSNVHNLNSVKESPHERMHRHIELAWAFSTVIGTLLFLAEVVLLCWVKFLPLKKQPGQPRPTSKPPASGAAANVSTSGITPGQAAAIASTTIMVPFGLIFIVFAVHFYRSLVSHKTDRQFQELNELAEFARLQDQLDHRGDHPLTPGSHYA
As to the kind of experiment: HEK Calcium Influx Assay (FLIPR). The conditions noted are these: 10 μM; endogenous SOC in HEK293 cells, thapsigargin store depletion, Ca2+ signal 9.5-10 min post-administration; read-out: % inhib.[@ 10 μM] FLIPR. The class given is cell-based. The method, then:
The effect of compounds of the invention on intracellular [Ca^2+] was tested in the HEK293 cell line (ECACC).
HEK293 cells were cultured in DMEM/F12/Glutamax (Gibco) containing 10% FCS (Gibco), and maintained at 37° C., 5% CO2. Cell were split twice a week [3*10^6 (Mon-Thu) and 1*10^6 (Thu-Mon) cells/50 ml medium in T-175 ZK culture flasks, respectively]. Twenty four hours pre-experiment, cells were seeded on 96 well plates (Poly-D-Lysine 96well Black/Clear Plate, BD Biocoat REF 356640) at a density of 40,000 cells/well in DMEM/F12 (Gibco) containing 10% FCS (Gibco), and maintained at 37° C., 5% CO2.
Prior to store-depletion, cell culture medium was removed and cells were loaded with the a Calcium-sensitive fluorescent dye comprised within the Calcium-4-assay kit (Molecular Devices) in nominally Ca^2+-free HBS buffer (140 mM NaCl, 4 mM KCl, 0.2 mM MgCl2, 11 mM D-glucose, and 10 mM HEPES, pH 7.4) according to manufacturer's instruction for 60 min at 37° C., 5% CO2.
Passive depletion of intracellular Ca^2+-stores was then triggered by employing the SERCA inhibitor thapsigargin (2 μM final) for 10 min in the dark (RT). To prevent immediate Ca^2+-entry via the activated Store-operated channels (SOCs), cells were maintained in Ca^2+-free HBS buffer comprising 100 μM EGTA during store-depletion.
Intracellular changes in [Ca^2+] were subsequently monitored with the FLIPR device (Molecular Devices). In brief, baseline imaging post-store depletion was allowed for 1 min before adjusting the extracellular buffer to 3 mM CaCl2. Increases in intracellular [Ca^2+] due to pre-activated SOC channels were monitored for 15 min until intracellular Ca^2+ levels had declined into a steady-state. Finally, compounds were administered and Ca^2+ signals were recorded for additional 10 min.
Inhibition of endogenous SOC in HEK293 cells was quantified employing the average Ca^2+ signal measured from 9.5-10 min post-administration. Zero percent inhibition (MAX) was defined as the Ca^2+ signal recorded from wells to which DMSO-only had been added instead of compound. Hundred percent inhibition (MIN) was defined as the signal obtained from wells in which cells haven't been treated with TG prior to Ca^2+ addition and to which DMSO-only had been added instead of compound. For routine IC50 determinations of compounds, 8 concentrations of a serial dilution (1:3.16) were tested, starting off from 10 μM. Reliable IC50's could consequently be determined only, if they were at least sub 2.5-3 μM.
For the compound `Cc1cncc(F)c1NC(=O)c1cc(-c2c(F)cccc2F)n(C)n1` [Example 53, 5-(2,6-Difluoro-phenyl)-N-(3-fluoro-5-methyl-pyridin-4-yl)-1-methyl-1H-pyrazole-3-carboxylic acid amide], the inhibition at 10 µM was 50 to 70%. `Cn1nc(C(=O)Nc2ccncc2F)cc1-c1ccc(OC(F)(F)F)cc1Cl` [Example 11, 5-[2-Chloro-4-(trifluoromethyloxy)-phenyl]-N-(3-fluoro-pyridin-4-yl)-1-methyl-1H-pyrazole-3-carboxylic acid amide]: the inhibition at 10 µM is 50 to 70%. Consider `Cn1nc(C(=O)Nc2c(F)cccc2F)cc1-c1c(F)cccc1F` [Example 50, N,5-Bis(2,6-difluoro-phenyl)-1-methyl-1H-pyrazole-3-carboxylic acid amide], for which the inhibition at 10 µM lay within 50 to 70%. The same measure, in the same setting: the result for `Cn1nc(C(=O)Nc2ccccc2OC(F)(F)F)cc1-c1c(F)cccc1C(F)(F)F` [Example 54, 5-[2-Fluoro-6-(trifluoromethyl)-phenyl]-1-methyl-N-[2-(trifluoromethyloxy)-phenyl]-1H-pyrazole-3-carboxylic acid amide] reads 50 to 70%; that for `COc1ccc(-c2cc(C(=O)Nc3ccncc3F)nn2C)c(C)c1` [Example 24, N-(3-Fluoro-pyridin-4-yl)-5-(4-methoxy-2-methyl-phenyl)-1-methyl-1H-pyrazole-3-carboxylic acid amide], > 70%. `COc1ccc(Cl)cc1-c1cc(C(=O)Nc2ccncc2F)nn1C` [Example 22, 5-(5-Chloro-2-methoxy-phenyl)-N-(3-fluoro-pyridin-4-yl)-1-methyl-1H-pyrazole-3-carboxylic acid amide]: the inhibition at 10 µM lay within 50 to 70%.

Take `Cn1nc(C(=O)Nc2ccc(F)cc2F)cc1-c1c(F)cccc1C(F)(F)F` [Example 55, N-(2,4-Difluoro-phenyl)-5-[2-fluoro-6-(trifluoromethyl)-phenyl]-1-methyl-1H-pyrazole-3-carboxylic acid amide]: the inhibition at 10 µM fell in the range of 50 to 70%. The same measure, in the same setting: the result for `Cc1ccncc1-c1cc(C(=O)Nc2c(C)cncc2F)nn1C` [Example 65, N-(3-Fluoro-5-methyl-pyridin-4-yl)-1-methyl-5-(4-methyl-pyridin-3-yl)-1H-pyrazole-3-carboxylic acid amide] reads > 70%; that for `Cc1ccc(Cl)cc1-c1cc(C(=O)Nc2ccncc2F)nn1C` [Example 23, 5-(5-Chloro-2-methyl-phenyl)-N-(3-fluoro-pyridin-4-yl)-1-methyl-1H-pyrazole-3-carboxylic acid amide], 50 to 70%; that for `Cc1ccncc1-c1cc(C(=O)Nc2ccccc2C(F)(F)F)nn1C` [Example 64, 1-Methyl-5-(4-methyl-pyridin-3-yl)-N-[2-(trifluoromethyl)-phenyl]-1H-pyrazole-3-carboxylic acid amide], > 70%. On the same count and under the same terms, for `COc1ccc(OC)c(-c2cc(C(=O)Nc3ccncc3F)nn2C)c1` [Example 19, 5-(2,5-Dimethoxyphenyl)-N-(3-fluoro-pyridin-4-yl)-1-methyl-1H-pyrazole-3-carboxylic acid amide] the value was > 70%; for `Cn1nc(C(=O)Nc2ccccc2F)cc1-c1c(F)cccc1C(F)(F)F` [Example 61, N-(2-Fluorophenyl)-5-[2-fluoro-6-(trifluoromethyl)-phenyl]-1-methyl-1H-pyrazole-3-carboxylic acid amide], > 70%. Regarding `COc1ccc(OC)c(-c2c(N)c(C(=O)Nc3ccncc3F)nn2C)c1` [Example 48, 4-Amino-5-(2,5-dimethoxyphenyl)-N-(3-fluoro-pyridin-4-yl)-1-methyl-1H-pyrazole-3-carboxylic acid amide], the inhibition at 10 µM was > 70%. Consider `CCn1nc(C(=O)Nc2c(F)cccc2F)cc1-c1cc(OC)ccc1OC` [Example 37, N-(2,6-Difluoro-phenyl)-5-(2,5-dimethoxyphenyl)-1-ethyl-1H-pyrazole-3-carboxylic acid amide], for which the inhibition at 10 µM is 50 to 70%. The same measure, in the same setting: the result for `COc1ccc(OC)c(-c2cc(C(=O)Nc3ccccc3F)nn2C)c1` [Example 33, 5-(2,5-Dimethoxyphenyl)-N-(2-fluorophenyl)-1-methyl-1H-pyrazole-3-carboxylic acid amide] reads > 70%; that for `Cn1nc(C(=O)Nc2c(F)cccc2F)cc1-c1cc(C(F)(F)F)ccc1F` [Example 6, N-(2,6-Difluoro-phenyl)-5-[2-fluoro-5-(trifluoromethyl)-phenyl]-1-methyl-1H-pyrazole-3-carboxylic acid amide], > 70%; that for `COc1cc(F)c(NC(=O)c2cc(-c3c(F)cccc3C(F)(F)F)n(C)n2)c(F)c1` [Example 58, N-(2,6-Difluoro-4-methoxy-phenyl)-5-[2-fluoro-6-(trifluoromethyl)-phenyl]-1-methyl-1H-pyrazole-3-carboxylic acid amide], 50 to 70%. `COc1ccc(OC)c(-c2cc(C(=O)Nc3ccncc3C(F)(F)F)nn2C)c1` [Example 14, 5-(2,5-Dimethoxyphenyl)-1-methyl-N-[3-(trifluoromethyl)-pyridin-4-yl]-1H-pyrazole-3-carboxylic acid amide]: the inhibition at 10 µM was in the range of 50 to 70%. As for `COc1ccc(OC)c(-c2cc(C(=O)Nc3c(F)cccc3F)n[nH]2)c1` [Example 41, N-(2,6-Difluoro-phenyl)-5-(2,5-dimethoxyphenyl)-1H-pyrazole-3-carboxylic acid amide], the inhibition at 10 µM is > 70%. Consider `Cn1nc(C(=O)Nc2ccccc2C(F)(F)F)cc1-c1c(F)cccc1C(F)(F)F` [Example 60, 5-[2-Fluoro-6-(trifluoromethyl)-phenyl]-1-methyl-N-[2-(trifluoromethyl)-phenyl]-1H-pyrazole-3-carboxylic acid amide], for which the inhibition at 10 µM was > 70%. Still for that read-out and setting: for `COc1ccc(OC)c(-c2cc(C(=O)Nc3ccc(S(C)(=O)=O)cc3F)nn2C)c1` [Example 13, 5-(2,5-Dimethoxyphenyl)-N-(2-fluoro-4-methylsulfonyl-phenyl)-1-methyl-1H-pyrazole-3-carboxylic acid amide] the value was 50 to 70%; for `Cn1nc(C(=O)Nc2ccncc2F)cc1-c1c(F)cccc1C(F)(F)F` [Example 62, N-(3-Fluoro-pyridin-4-yl)-5-[2-fluoro-6-(trifluoromethyl)-phenyl]-1-methyl-1H-pyrazole-3-carboxylic acid amide], > 70%. `Cn1nc(C(=O)Nc2c(F)cccc2F)cc1-c1cc(F)ccc1F` [Example 5, 5-(2,5-Difluoro-phenyl)-N-(2,6-difluoro-phenyl)-1-methyl-1H-pyrazole-3-carboxylic acid amide]: the inhibition at 10 µM was 50 to 70%. As to `Cc1cccc(F)c1NC(=O)c1cc(-c2c(F)cccc2C(F)(F)F)n(C)n1` [Example 59, N-(2-Fluoro-6-methyl-phenyl)-5-[2-fluoro-6-(trifluoromethyl)-phenyl]-1-methyl-1H-pyrazole-3-carboxylic acid amide], the inhibition at 10 µM was > 70%. As for `Cc1cnccc1NC(=O)c1cc(-c2cc(Cl)ccc2C)n(C)n1` [Example 28, 5-(5-Chloro-2-methyl-phenyl)-1-methyl-N-(3-methyl-pyridin-4-yl)-1H-pyrazole-3-carboxylic acid amide], the inhibition at 10 µM is 50 to 70%.

Take `Cn1nc(C(=O)Nc2ccccc2C#N)cc1-c1c(F)cccc1C(F)(F)F` [Example 56, N-(2-Cyano-phenyl)-5-[2-fluoro-6-(trifluoromethyl)-phenyl]-1-methyl-1H-pyrazole-3-carboxylic acid amide]: the inhibition at 10 µM was in the range of 50 to 70%.

Take `Cn1nc(C(=O)Nc2c(F)cccc2F)cc1-c1cc(C(F)(F)F)ccc1C#N` [Example 38, 5-[2-Cyano-5-(trifluoromethyl)-phenyl]-N-(2,6-difluoro-phenyl)-1-methyl-1H-pyrazole-3-carboxylic acid amide]: the inhibition at 10 µM lay within 50 to 70%. In the case of `Cc1ccc(C(F)(F)F)cc1-c1cc(C(=O)Nc2ccncc2F)nn1C` [Example 29, N-(3-Fluoro-pyridin-4-yl)-1-methyl-5-[2-methyl-5-(trifluoromethyl)-phenyl]-1H-pyrazole-3-carboxylic acid amide], the inhibition at 10 µM lay within 50 to 70%.

The same assay, now with this note: HEK293, read-out: % inhib.[@ 10 μM] FLIPR.
As for `Cn1nc(C(=O)Nc2ccc(Cl)cc2Cl)cc1-c1c(F)cccc1C(F)(F)F` [Example 57, N-(2,4-Dichlorophenyl)-5-[2-fluoro-6-(trifluoromethyl)-phenyl]-1-methyl-1H-pyrazole-3-carboxylic acid amide], the inhibition at 10 µM was 50 to 70%.
